Assay results taken from PubChem BioAssay AID2305 (GlaxoSmithKline (GSK), 2010).

Test system: P. falciparum 3D7 growth, pLDH absorbance
Test: blood-stage malaria parasite growth potency – strain 3D7, dose response (AID 2305)

SMILES	IC50 [µM]
CCCC(=O)NC(c1ccc(C)cc1)c1ccc2cccnc2c1O (centres undefined)	0.96
COc1ccc2nccc([C@@H](O)CN3CCC(NCc4cc5ccccn5n4)CC3)c2c1	1.57
Cc1c(CN2CCC(N3CCC(C(=O)NC4CC4)CC3)CC2)[nH]c2c(Cl)cccc12	1.19
COc1ccc(CNCc2ccc(F)cc2)cc1-c1ccc(S(=O)(=O)NCCN2CCCC2)s1	0.71
COc1ccc2nc(/N=C(/N)NC(=O)Nc3ccccc3)nc(C)c2c1	1.28
OC(Cn1ccnc1)(c1ccc(Cl)cc1Cl)C1CCCCC1 (centres undefined)	0.98
O=C(Nc1cccc(-c2cccc(-c3nc4ccccc4[nH]3)c2)c1)c1csnn1	0.92
COc1ccc(-c2ccc(NC(=O)c3ccc(C#N)cc3)c(F)c2)cc1CN(C)CCN(C)C	0.97
COc1cc(NC(=O)/C=C/c2ccccc2OC(F)(F)F)cc(OCCN2CCC(O)(c3ccccc3)CC2)c1	0.29
CN1CCC(c2c[nH]c3ccc(NC(=O)Nc4ccc(-c5ccncc5)cc4Cl)cc23)CC1	0.84
NCC1CCCN1Cc1ccc(-c2ccc(-c3nc4ccc(C(F)(F)F)cc4[nH]3)cc2)cc1 (centres undefined)	0.96
Cc1cc(NC(=O)NCCN2CCC(NS(=O)(=O)c3cccc(Br)c3)C2)c2ccccc2n1 (centres undefined)	0.61
O=C(CNC(=O)c1ccc(O)cc1)Nc1ccc(-c2cccc(-c3nc4ccc(C(F)(F)F)cc4[nH]3)c2)cc1	0.86
CCCCCCCN(CCCCCCC)CCCC(=O)Nc1ccnc2ccc(OC)cc12	0.15
CN1Cc2cc(NC(=O)/C=C/c3ccccc3Cl)ccc2C(C)(C)C1	0.64
COc1ccc(Cl)c(CC2c3cc(O)c(Cl)cc3CCN2C)c1 (centres undefined)	0.7
CCCOc1cc(Cc2cnc(N)nc2N)cc(OC)c1OC	1.17
O=C(Cn1c(=O)oc2ccccc21)N1CCC(n2c(=O)n(CCCN3CCOCC3)c3ccccc32)CC1	0.77
CC(C)CCNCc1ccc(OCc2cccc(COc3ccc(CNCCC(C)C)cc3I)c2)c(I)c1	0.45
Cc1cc(NN=Cc2ccccc2Cl)c2cc(F)ccc2n1	0.75
FC(F)(F)c1ccc2nccc(NN=Cc3ccccc3)c2c1	1.17
Cc1cccc2[nH]c(-c3ccc(-c4cccc(NC(=O)NCc5cccc(F)c5)c4)s3)nc12	0.76
Nc1nc(NCC2CCC(CNS(=O)(=O)c3cccc4ccccc34)CC2)nc2ccccc12 (centres undefined)	0.8
COc1ccc(NC(=O)Nc2cccc(-c3cccc(-c4nc5ccccc5[nH]4)c3)c2)cc1	0.31
O=C(NC1CCCc2ccccc21)[C@@H]1CCCN1C(=O)c1ccc(O)c(-c2ccc(Cl)c(Cl)c2)c1 (some centres undefined)	0.21

SMILES	IC50 [µM]
Cc1ccc(F)cc1S(=O)(=O)Nc1cccc(CCN2CCC(N3CCCCC3)CC2)c1	1.12
CCn1c(-c2nonc2N)nc2c(-c3cccc(NC(=O)Nc4ccc5c(c4)CCC5)c3)ncc(OCCCN)c21	0.78
CC(C)CCNCc1ccc(OCc2cccc(C(=O)Nc3ccccc3)c2)c(I)c1	0.29
COc1cccc(-c2nn(C)c3sc(C(=O)NCCN4CCN(c5ccccc5F)CC4)cc23)c1	0.95
Fc1ccc2[nH]c(-c3ccccc3)nc2c1CN1CCC(N2CCCC2)CC1	0.72
CCCc1cc(N2CCC(N3CCCC3)CC2)nc(Nc2ccc(Cl)cc2)n1	0.76
COc1ccc(CC2(c3ccc(F)cc3)N=C(N)N(CCCc3ccc(F)c(F)c3)C2=O)cc1 (centres undefined)	0.78
Cc1cccc(-c2nn(-c3ccccc3)cc2C(=O)Nc2nnc(C)o2)c1	1.16
Cc1sc(CNCCCNc2cc(=O)c3ccccc3[nH]2)cc1Br	0.76
Cc1cc(SC(C)(C)C)cc2c(Cl)c(C(N)=O)cnc12	1.09
CC(C)(C)C1CC(=O)C[C@@H]2C(=O)N(C3CCCCC3)C(=O)[C@H]12 (some centres undefined)	0.42
CCNc1cc(C(=O)N[C@@H](Cc2ccccc2)[C@H](O)CNC2(CC(C)C)CC2)cc(N2CCCCS2(=O)=O)c1	1.02
N#Cc1ccc2c(c1)CCN(CCC1CCC(Nc3ncnc4ccccc34)CC1)C2 (centres undefined)	0.63
Cc1cccc2[nH]c(-c3ccc(-c4cccc(NC(=O)C(C)CN(C)C)c4)s3)nc12 (centres undefined)	0.72
CCN(C1CCCCC1)S(=O)(=O)c1ccc(OC)c(N2CCN(C(=O)C(Cl)(Cl)Cl)CC2)c1	0.63
CCCNc1ccc(-c2cc(C(N)=O)c3[nH]cc(C4CCN(S(=O)(=O)CC)CC4)c3c2)cn1	0.82
CN1CCN(c2ccnc3ccc(NC(=O)N(C)c4ccc(Cl)c(Cl)c4)cc23)CC1	0.74
C=C[C@H]1CN2CC[C@@H]1C[C@H]2[C@H](O)c1cc(-c2ccc(F)cc2)nc2ccc(OC)cc12	0.17
CNC(=O)c1cc(NCCCNCc2ccc(Cl)c(C(F)(F)F)c2)nc2ccccc12	0.93
CC1(C)[C@H]2CC[C@@H](CNc3nc(NCCc4cnc[nH]4)nc(Nc4ccc5c(c4)OCO5)n3)[C@@H]1C2	0.54
O=c1[nH]nc(-c2ccc(N3CCCC3)c([N+](=O)[O-])c2)c2ccccc12	0.63
Cc1cc(NN=Cc2ccccc2F)c2cc(F)ccc2n1	0.3
CC1=C(C(=O)Nc2cc3cn[nH]c3cc2F)C(c2cccc(O)c2F)CC(=O)N1 (centres undefined)	0.63
CCCCCCN1CCCN(Cc2ccc(C(=O)Nc3ccc(C(C)C)cc3)cc2)CC1	0.83
